Experiments:
Experiment in all cases: KinaseProfiler off-target kinase profiling
Type in all cases: biochemical
Conditions in all cases: 10 μM, ATP near Km
[1] = target: TrkA (Homo sapiens, UniProt P04629); set-up: purchased Millipore, Inc. (KinaseProfiler service)
Procedure: (§1) A representative compound of the invention (Example 48) was tested for off-target kinase activity at a concentration of 10 μM by Millipore, Inc. in their KinaseProfiler™ service against all the kinases available in their full kinase panel. The compound was run in duplicate at a concentration of ATP near the Km for each individual kinase according to Millipore's specifications. The results are shown in Table B. Data are reported as percent of control (POC) and are the average of the two replicates.

[2] = target: T1, CAMK1 (Homo sapiens, UniProt Q14012)
T1 construct: purchased Millipore, Inc. (KinaseProfiler service)
Procedure: as §1

[3] = target: T2, p70S6K (Homo sapiens, UniProt P23443)
T2 construct: purchased Millipore, Inc. (KinaseProfiler service)
Procedure: as §1

[4] = target: T3, ERK2 (Homo sapiens, UniProt P28482)
T3 construct: purchased Millipore, Inc. (KinaseProfiler service)
Procedure: as §1

[5] = target: T4, CDK7/cyclinH/MAT1 (Homo sapiens, UniProt P50613)
T4 construct: purchased Millipore, Inc. (KinaseProfiler service)
Procedure: as §1

[6] = target: T5, MKK4_m (Mus musculus, UniProt P47809)
T5 construct: purchased Millipore, Inc. (KinaseProfiler service)
Procedure: as §1

[7] = target: T6, TLK2 (Homo sapiens, UniProt Q86UE8)
T6 construct: purchased Millipore, Inc. (KinaseProfiler service)
Procedure: as §1

[8] = target: T7, LOK (Homo sapiens, UniProt O94804)
T7 construct: purchased Millipore, Inc. (KinaseProfiler service)
Procedure: as §1

[9] = target: T8, ITK (Homo sapiens, UniProt Q08881)
T8 construct: purchased Millipore, Inc. (KinaseProfiler service)
Procedure: as §1

[10] = target: T9, PKCiota (Homo sapiens, UniProt P41743)
T9 construct: purchased Millipore, Inc. (KinaseProfiler service)
Procedure: as §1

[11] = target: T10, HIPK1 (Homo sapiens, UniProt Q86Z02)
T10 construct: purchased Millipore, Inc. (KinaseProfiler service)
Procedure: as §1

[12] = target: T11, PAK4 (Homo sapiens, UniProt O96013)
T11 construct: purchased Millipore, Inc. (KinaseProfiler service)
Procedure: as §1

[13] = target: T12, KDR (Homo sapiens, UniProt P35968)
T12 construct: purchased Millipore, Inc. (KinaseProfiler service)
Procedure: as §1

[14] = target: T13, Flt4 (Homo sapiens, UniProt P35916)
T13 construct: purchased Millipore, Inc. (KinaseProfiler service)
Procedure: as §1

[15] = target: T14, MuSK (Homo sapiens, UniProt O15146)
T14 construct: purchased Millipore, Inc. (KinaseProfiler service)
Procedure: as §1

[16] = target: T15, CDK3/cyclinE (Homo sapiens, UniProt Q00526)
T15 construct: purchased Millipore, Inc. (KinaseProfiler service)
Procedure: as §1

[17] = target: T16, NEK11 (Homo sapiens, UniProt Q8NG66)
T16 construct: purchased Millipore, Inc. (KinaseProfiler service)
Procedure: as §1

[18] = target: T17, p38beta (Homo sapiens, UniProt Q15759)
T17 construct: purchased Millipore, Inc. (KinaseProfiler service)
Procedure: as §1

[19] = target: T18, JNK1alpha1 (Homo sapiens, UniProt P45983)
T18 construct: purchased Millipore, Inc. (KinaseProfiler service)
Procedure: as §1

[20] = target: T19, CK1gamma1 (Homo sapiens, UniProt Q9HCP0)
T19 construct: purchased Millipore, Inc. (KinaseProfiler service)
Procedure: as §1

[21] = target: T20, Fer (Homo sapiens, UniProt P16591)
T20 construct: purchased Millipore, Inc. (KinaseProfiler service)
Procedure: as §1

[22] = target: T21, PTK5 (Homo sapiens, UniProt P42685)
T21 construct: purchased Millipore, Inc. (KinaseProfiler service)
Procedure: as §1

[23] = target: T22, PAK5 (Homo sapiens, UniProt Q9P286)
T22 construct: purchased Millipore, Inc. (KinaseProfiler service)
Procedure: as §1

[24] = target: T23, LIMK1 (Homo sapiens, UniProt P53667)
T23 construct: purchased Millipore, Inc. (KinaseProfiler service)
Procedure: as §1

[25] = target: T24, TAK1 (Homo sapiens, UniProt O43318)
T24 construct: purchased Millipore, Inc. (KinaseProfiler service)
Procedure: as §1

[26] = target: T25, IKKbeta (Homo sapiens, UniProt O14920)
T25 construct: purchased Millipore, Inc. (KinaseProfiler service)
Procedure: as §1

[27] = target: T26, PKCgamma (Homo sapiens, UniProt P05129)
T26 construct: purchased Millipore, Inc. (KinaseProfiler service)
Procedure: as §1

[28] = target: T27, IRAK1 (Homo sapiens, UniProt P51617)
T27 construct: purchased Millipore, Inc. (KinaseProfiler service)
Procedure: as §1

[29] = target: T28, GSK3beta (Homo sapiens, UniProt P49841)
T28 construct: purchased Millipore, Inc. (KinaseProfiler service)
Procedure: as §1

[30] = target: T29, JAK3 (Homo sapiens, UniProt P52333)
T29 construct: purchased Millipore, Inc. (KinaseProfiler service)
Procedure: as §1

[31] = target: T30, SIK (Homo sapiens, UniProt P57059)
T30 construct: purchased Millipore, Inc. (KinaseProfiler service)
Procedure: as §1

[32] = target: T31, CDK5/p25 (Homo sapiens, UniProt Q00535)
T31 construct: purchased Millipore, Inc. (KinaseProfiler service)
Procedure: as §1

[33] = target: T32, MELK (Homo sapiens, UniProt Q14680)
T32 construct: purchased Millipore, Inc. (KinaseProfiler service)
Procedure: as §1

[34] = target: T33, BrSK1 (Homo sapiens, UniProt Q8TDC3)
T33 construct: purchased Millipore, Inc. (KinaseProfiler service)
Procedure: as §1

[35] = target: T34, GSK3alpha (Homo sapiens, UniProt P49840)
T34 construct: purchased Millipore, Inc. (KinaseProfiler service)
Procedure: as §1

[36] = target: T35, Rsk2 (Homo sapiens, UniProt P51812)
T35 construct: purchased Millipore, Inc. (KinaseProfiler service)
Procedure: as §1

[37] = target: T36, SRC (Homo sapiens, UniProt P12931)
T36 construct: purchased Millipore, Inc. (KinaseProfiler service)
Procedure: as §1

[38] = target: T37, MAP4K2 (Homo sapiens, UniProt Q12851)
T37 construct: purchased Millipore, Inc. (KinaseProfiler service)
Procedure: as §1

[39] = target: T38, Plk2 (Homo sapiens, UniProt Q9NYY3)
T38 construct: purchased Millipore, Inc. (KinaseProfiler service)
Procedure: as §1

[40] = target: T39, IR (Homo sapiens, UniProt P06213)
T39 construct: purchased Millipore, Inc. (KinaseProfiler service)
Procedure: as §1

[41] = target: T40, p38delta (Homo sapiens, UniProt O15264)
T40 construct: purchased Millipore, Inc. (KinaseProfiler service)
Procedure: as §1

T39 sequence (P06213 28-1382): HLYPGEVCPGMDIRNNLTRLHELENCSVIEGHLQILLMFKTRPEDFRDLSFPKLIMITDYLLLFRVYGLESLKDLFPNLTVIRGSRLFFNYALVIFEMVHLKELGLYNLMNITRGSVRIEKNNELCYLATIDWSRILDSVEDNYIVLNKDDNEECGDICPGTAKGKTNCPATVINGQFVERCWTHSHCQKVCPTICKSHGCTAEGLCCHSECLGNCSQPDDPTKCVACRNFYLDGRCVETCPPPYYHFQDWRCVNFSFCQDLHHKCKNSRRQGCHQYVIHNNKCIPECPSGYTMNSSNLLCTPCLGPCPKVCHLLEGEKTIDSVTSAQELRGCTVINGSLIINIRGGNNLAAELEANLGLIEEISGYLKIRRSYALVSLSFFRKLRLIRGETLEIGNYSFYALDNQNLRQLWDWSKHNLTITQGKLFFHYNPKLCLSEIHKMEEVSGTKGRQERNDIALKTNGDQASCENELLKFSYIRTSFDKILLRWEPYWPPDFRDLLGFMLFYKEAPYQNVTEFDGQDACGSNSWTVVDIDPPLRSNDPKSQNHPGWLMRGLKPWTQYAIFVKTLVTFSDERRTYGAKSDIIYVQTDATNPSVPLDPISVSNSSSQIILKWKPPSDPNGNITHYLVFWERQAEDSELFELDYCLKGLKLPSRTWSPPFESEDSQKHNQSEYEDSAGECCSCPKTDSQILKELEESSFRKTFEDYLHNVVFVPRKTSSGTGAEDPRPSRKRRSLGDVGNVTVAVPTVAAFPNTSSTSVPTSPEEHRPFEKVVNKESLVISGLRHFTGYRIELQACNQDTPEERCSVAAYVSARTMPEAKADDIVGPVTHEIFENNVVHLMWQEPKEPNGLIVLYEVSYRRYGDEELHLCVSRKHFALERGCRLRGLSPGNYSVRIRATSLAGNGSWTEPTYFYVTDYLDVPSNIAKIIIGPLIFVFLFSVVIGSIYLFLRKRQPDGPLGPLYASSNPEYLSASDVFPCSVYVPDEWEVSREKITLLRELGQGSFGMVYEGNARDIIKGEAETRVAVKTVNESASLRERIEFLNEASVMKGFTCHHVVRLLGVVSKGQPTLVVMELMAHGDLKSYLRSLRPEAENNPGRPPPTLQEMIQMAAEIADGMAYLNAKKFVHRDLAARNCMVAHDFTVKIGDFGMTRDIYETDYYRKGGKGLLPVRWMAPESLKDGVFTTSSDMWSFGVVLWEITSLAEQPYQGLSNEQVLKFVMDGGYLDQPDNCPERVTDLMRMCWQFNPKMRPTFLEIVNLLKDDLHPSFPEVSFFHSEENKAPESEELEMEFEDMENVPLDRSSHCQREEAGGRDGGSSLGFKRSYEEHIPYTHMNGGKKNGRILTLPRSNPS
T25 sequence (O14920 whole entry): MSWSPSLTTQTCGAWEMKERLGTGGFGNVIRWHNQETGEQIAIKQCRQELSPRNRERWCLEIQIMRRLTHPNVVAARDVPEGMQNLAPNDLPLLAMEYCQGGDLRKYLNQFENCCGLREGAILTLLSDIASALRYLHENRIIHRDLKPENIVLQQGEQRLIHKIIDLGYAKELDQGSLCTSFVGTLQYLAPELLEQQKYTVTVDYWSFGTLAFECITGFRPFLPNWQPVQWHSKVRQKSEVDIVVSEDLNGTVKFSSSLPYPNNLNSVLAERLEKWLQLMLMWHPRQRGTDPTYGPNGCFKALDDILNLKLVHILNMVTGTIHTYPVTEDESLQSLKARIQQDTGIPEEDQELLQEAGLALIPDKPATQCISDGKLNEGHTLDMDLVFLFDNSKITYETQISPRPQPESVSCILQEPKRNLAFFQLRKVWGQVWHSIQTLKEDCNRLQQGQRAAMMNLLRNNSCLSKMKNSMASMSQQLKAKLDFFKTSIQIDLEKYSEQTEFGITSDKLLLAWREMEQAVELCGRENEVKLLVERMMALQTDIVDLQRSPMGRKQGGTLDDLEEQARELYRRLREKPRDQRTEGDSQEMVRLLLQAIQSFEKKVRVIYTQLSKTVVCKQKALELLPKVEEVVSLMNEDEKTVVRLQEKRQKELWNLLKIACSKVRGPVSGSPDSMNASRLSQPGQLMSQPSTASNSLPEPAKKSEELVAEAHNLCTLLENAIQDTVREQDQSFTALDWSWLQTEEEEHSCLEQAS
T29 sequence (P52333 whole entry): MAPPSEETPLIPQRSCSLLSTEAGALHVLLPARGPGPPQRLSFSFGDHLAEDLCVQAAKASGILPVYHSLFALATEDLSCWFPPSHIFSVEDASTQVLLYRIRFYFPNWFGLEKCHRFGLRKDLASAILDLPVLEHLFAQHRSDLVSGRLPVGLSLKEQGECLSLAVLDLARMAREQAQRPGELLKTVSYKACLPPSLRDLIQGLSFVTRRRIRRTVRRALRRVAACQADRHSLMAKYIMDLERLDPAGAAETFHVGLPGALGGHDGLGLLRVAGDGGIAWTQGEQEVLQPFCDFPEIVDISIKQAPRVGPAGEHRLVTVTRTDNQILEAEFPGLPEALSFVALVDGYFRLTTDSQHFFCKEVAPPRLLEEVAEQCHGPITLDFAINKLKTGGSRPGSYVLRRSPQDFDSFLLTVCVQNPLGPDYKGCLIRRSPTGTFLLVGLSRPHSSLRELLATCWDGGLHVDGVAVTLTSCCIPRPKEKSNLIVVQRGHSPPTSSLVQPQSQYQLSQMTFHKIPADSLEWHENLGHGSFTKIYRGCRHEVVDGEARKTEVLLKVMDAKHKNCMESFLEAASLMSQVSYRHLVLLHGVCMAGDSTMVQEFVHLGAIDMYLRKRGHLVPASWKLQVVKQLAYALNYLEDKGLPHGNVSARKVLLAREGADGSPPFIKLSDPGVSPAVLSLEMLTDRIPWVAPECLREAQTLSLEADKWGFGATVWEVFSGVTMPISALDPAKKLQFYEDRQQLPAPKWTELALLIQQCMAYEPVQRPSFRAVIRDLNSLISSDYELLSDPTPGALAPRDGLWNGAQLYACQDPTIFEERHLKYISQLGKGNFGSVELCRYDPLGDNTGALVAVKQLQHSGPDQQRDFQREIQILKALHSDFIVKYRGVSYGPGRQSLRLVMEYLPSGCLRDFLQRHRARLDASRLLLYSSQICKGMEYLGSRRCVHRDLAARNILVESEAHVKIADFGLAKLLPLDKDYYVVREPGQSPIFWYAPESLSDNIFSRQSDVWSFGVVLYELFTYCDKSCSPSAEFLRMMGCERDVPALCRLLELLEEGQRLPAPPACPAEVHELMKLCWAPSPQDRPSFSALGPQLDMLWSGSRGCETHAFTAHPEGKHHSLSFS
T36 sequence (P12931 whole entry): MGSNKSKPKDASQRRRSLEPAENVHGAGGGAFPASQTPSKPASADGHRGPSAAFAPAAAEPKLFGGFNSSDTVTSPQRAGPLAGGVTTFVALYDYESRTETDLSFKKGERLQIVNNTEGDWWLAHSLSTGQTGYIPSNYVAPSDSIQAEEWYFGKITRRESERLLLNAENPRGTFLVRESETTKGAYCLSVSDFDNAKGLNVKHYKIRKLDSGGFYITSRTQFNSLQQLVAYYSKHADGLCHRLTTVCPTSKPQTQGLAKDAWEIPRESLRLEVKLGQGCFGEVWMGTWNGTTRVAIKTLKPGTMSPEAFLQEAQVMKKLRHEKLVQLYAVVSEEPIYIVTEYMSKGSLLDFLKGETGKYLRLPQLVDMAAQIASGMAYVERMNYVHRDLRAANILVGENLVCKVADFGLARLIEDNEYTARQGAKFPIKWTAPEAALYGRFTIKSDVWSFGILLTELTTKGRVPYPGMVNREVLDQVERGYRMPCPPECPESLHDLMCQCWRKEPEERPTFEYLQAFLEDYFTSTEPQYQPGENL
T13 sequence (P35916 25-1363): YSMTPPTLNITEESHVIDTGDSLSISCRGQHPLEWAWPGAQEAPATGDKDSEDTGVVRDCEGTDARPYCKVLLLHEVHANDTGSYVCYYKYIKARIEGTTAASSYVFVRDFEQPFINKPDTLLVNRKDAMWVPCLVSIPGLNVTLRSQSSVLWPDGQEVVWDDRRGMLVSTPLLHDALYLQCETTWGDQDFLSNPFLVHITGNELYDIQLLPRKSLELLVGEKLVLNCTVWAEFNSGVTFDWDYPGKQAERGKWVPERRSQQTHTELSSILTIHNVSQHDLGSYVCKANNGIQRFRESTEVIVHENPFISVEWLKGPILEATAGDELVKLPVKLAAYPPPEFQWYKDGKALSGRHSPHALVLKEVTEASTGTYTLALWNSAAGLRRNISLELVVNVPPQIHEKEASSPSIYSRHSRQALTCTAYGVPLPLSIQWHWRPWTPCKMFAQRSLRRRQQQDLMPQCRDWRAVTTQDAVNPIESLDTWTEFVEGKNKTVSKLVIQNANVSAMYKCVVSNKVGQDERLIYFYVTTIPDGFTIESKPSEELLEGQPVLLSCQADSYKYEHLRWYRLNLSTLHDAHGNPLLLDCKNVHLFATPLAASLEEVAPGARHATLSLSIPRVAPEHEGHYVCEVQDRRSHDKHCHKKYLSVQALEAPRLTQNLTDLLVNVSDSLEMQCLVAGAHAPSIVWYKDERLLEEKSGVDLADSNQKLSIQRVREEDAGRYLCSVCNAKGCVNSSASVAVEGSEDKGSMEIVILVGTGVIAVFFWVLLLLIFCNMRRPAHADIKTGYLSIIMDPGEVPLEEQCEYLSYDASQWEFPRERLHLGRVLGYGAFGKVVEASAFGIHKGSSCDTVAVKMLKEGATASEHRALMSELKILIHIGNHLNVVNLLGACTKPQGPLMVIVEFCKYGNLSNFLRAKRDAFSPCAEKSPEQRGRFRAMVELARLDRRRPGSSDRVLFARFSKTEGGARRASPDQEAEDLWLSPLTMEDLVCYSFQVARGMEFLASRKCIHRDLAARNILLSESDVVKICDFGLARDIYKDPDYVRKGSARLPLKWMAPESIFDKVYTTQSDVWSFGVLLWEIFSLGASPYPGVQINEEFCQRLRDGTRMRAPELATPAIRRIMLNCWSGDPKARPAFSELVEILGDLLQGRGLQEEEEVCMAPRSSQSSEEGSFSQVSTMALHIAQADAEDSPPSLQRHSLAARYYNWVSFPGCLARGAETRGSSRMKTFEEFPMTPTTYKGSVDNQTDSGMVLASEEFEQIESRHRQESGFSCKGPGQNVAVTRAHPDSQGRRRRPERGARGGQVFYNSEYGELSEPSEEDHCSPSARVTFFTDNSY

- Avg POC [1]: 2.5% of control
- Avg POC [2]: 104.5% of control
- Avg POC [3]: 107.5% of control
- Avg POC [4]: 101% of control
- Avg POC [5]: 112.5% of control
- Avg POC [6]: 122% of control
- Avg POC [7]: 98% of control
- Avg POC [8]: 107.5% of control
- Avg POC [9]: 170.5% of control
- Avg POC [10]: 120% of control
- Avg POC [11]: 119.5% of control
- Avg POC [12]: 134.5% of control
- Avg POC [13]: 104% of control
- Avg POC [14]: 103% of control
- Avg POC [15]: 107.5% of control
- Avg POC [16]: 99.5% of control
- Avg POC [17]: 105% of control
- Avg POC [18]: 115% of control
- Avg POC [19]: 106.5% of control
- Avg POC [20]: 116% of control
- Avg POC [21]: 91.5% of control
- Avg POC [22]: 107.5% of control
- Avg POC [23]: 113% of control
- Avg POC [24]: 104% of control
- Avg POC [25]: 104% of control
- Avg POC [26]: 96% of control
- Avg POC [27]: 93.5% of control
- Avg POC [28]: 100.5% of control
- Avg POC [29]: 63% of control
- Avg POC [30]: 102.5% of control
- Avg POC [31]: 111% of control
- Avg POC [32]: 110.5% of control
- Avg POC [33]: 89% of control
- Avg POC [34]: 123.5% of control
- Avg POC [35]: 120.5% of control
- Avg POC [36]: 134% of control
- Avg POC [37]: 124% of control
- Avg POC [38]: 110.5% of control
- Avg POC [39]: 99.5% of control
- Avg POC [40]: 102% of control
- Avg POC [41]: 108.5% of control
Structure (SMILES): COCCN1C[C@@H](NC(=O)Nc2sc(C(C)C)nc2-c2ccccc2)[C@H](c2ccccc2)C1 [Example 48, 1-(2-isopropyl-4-phenylthiazol-5-yl)-3-((3S,4R)-1-(2-methoxyethyl)-4-phenylpyrrolidin-3-yl)urea]

— US9828360B2 (Array BioPharma Inc., priority 2012, dated 2017)
